From patent US9409952B2, “Peptide-compound cyclization method” (Chugai Seiyaku Kabushiki Kaisha, priority 2011, dated 2016)
Where two headings read alike, the source gives them in different places. Starred links: 1 amine or outer side, 2 acyl side, 3 side chain; linkers in the order of their positions; H or OH if unused. Positions of bridges follow the written chain, without caps; N, C: chain ends. Non-standard residues stand in square brackets, D forms with d. Residues, ends and D or L forms follow the SMILES beside them. *: point of attachment. Phe(3-(CH2)4CO) = O=C([C@H](Cc1cccc(CCCCC(=O)[*:3])c1)N[*:1])[*:2]; NMeF = CN[C@@H](Cc1ccccc1)C(=O)O; NMeGABA = CN(CCCC(=O)[*:2])[*:1]; NMeI = CC[C@H](C)[C@H](NC)C(=O)O; NMeβAla = CN(CCC(=O)[*:2])[*:1]; NMeL = CN[C@@H](CC(C)C)C(=O)O; NMeV = CN[C@H](C(=O)O)C(C)C; NMeA = CN[C@@H](C)C(=O)O; Piperidide = C1CCN(*)CC1; dNMeA = CN[C@H](C)C(=O)O; β3hA = C[C@H](N)CC(=O)O; Sar = CNCC(=O)O; tBu = CC(C)(C)*

Experiments:
[1] = PAMPA (parallel artificial membrane permeability assay); assay type: in vitro ADME; conditions: PAMPA
In short: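 Artificial membrane was 10% (w/v) egg lecithin plus 0.5% (w/v) cholesterol in dodecane on a PVDF filter. A 10 mM DMSO stock was added at 0.5% (v/v) to donor buffer (50 mM MOPSO, pH 6.5, 5.0% glycocholic acid). After 18 h at 37 °C, LC/MS or LC/UV gave donor and acceptor levels for Pe.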

[2] = Metabolic stability in human hepatic microsome; assay type: in vitro ADME; conditions: microsomes
[3] = membrane permeation rate (Pe), 50 mM MOPSO buffer pH 6.5 with 5.0% glycocholic acid, 37° C., 18 hours, read-out: iPAMPA Pe
[4] = pH 7.4, human hepatic microsome, NADPH(+), read-out: CL NADPH(+)

| Compound | Papp at 18 hours, 50 µM [1, 3] | microsomal CLint at 1 uM [2, 4] | Papp at 18 hours, 50 µM ([1]; pH 6.5) | microsomal CLint at 1 uM ([2]; human, pH 7.4, CL NADPH(+)) |
| --- | --- | --- | --- | --- |
| CC[C@H](C)[C@H](NC(=O)[C@@H](NC(=O)[C@H](CC(C)C)N(C)C(=O)[C@@H](NC(=O)[C@@H]1CC(=O)N(C)[C@@H](C)C(=O)N[C@@H](CC(C)C)C(=O)N(C)[C@@H](Cc2ccccc2)C(=O)N[C@@H](CC(C)C)C(=O)N(C)CC(=O)N(C)[C@@H](CC(C)C)C(=O)N[C@@H]([C@@H](C)CC)C(=O)N(C)[C@@H](CC(C)C)C(=O)N1)[C@@H](C)O)C(C)C)C(=O)N1CCCCC1 [DP-940] ([NMeA]L[NMeF]L[Sar][NMeL]I[NMeL]DT[NMeL]VI-Piperidide; lactam N-9) | 0.14 ×10⁻⁶ cm/s | 37 µL/min/mg |  |  |
| CC[C@H](C)[C@H]1C(=O)NCC(=O)N[C@@H]([C@@H](C)O)C(=O)N2CCC[C@H]2C(=O)N[C@@H](Cc2ccccc2)C(=O)N(C)[C@@H](CC(C)C)C(=O)N[C@H](C(=O)N2CCCCC2)CC(=O)N[C@H](C(C)C)C(=O)N[C@@H](Cc2ccccc2)C(=O)N(C)[C@@H](CC(C)C)C(=O)N[C@@H](CC(C)C)C(=O)N1C [DP-231] ([dV]F[NMeL]L[NMeI]GTPF[NMeL]D-Piperidide; lactam N-11) |  |  | 18 ×10⁻⁶ cm/s | 56 µL/min/mg |
| CC[C@H](C)[C@@H]1NC(=O)[C@H](CC(C)C)N(C)C(=O)CN(C)C(=O)[C@H]([C@@H](C)O)NC(=O)[C@H](CC(C)C)N(C)C(=O)[C@H](Cc2ccccc2)N(C)C(=O)[C@H](C)N(C)C(=O)[C@@H](C)NC(=O)C[C@@H](C(=O)N(C)[C@@H](Cc2ccccc2)C(=O)N[C@@H](C)C(=O)N2CCCCC2)NC(=O)[C@H](C(C)C)N(C)C1=O [DP-290] ([dA][NMeA][NMeF][NMeL]T[Sar][NMeL]I[NMeV]D[NMeF]A-Piperidide; lactam N-10) | 19 ×10⁻⁶ cm/s | 23 µL/min/mg |  |  |
| CC[C@H](C)[C@H]1C(=O)N(C)[C@@H](C)C(=O)N[C@@H](Cc2ccccc2)C(=O)N[C@@H]([C@@H](C)O)C(=O)N[C@@H](Cc2ccccc2)C(=O)N(C)[C@@H](CC(C)C)C(=O)N2CCC[C@H]2C(=O)N[C@H](C(=O)N2CCCCC2)CC(=O)N[C@@H](C)C(=O)N[C@@H](CC(C)C)C(=O)N(C)CC(=O)N[C@@H](CC(C)C)C(=O)N1C [DP-7] (AL[Sar]L[NMeI][NMeA]FTF[NMeL]PD-Piperidide; lactam N-12) | 10 ×10⁻⁶ cm/s | 48 µL/min/mg |  |  |
| CC(C)C[C@H]1C(=O)NCC(=O)N[C@@H](C)CC(=O)N(C)CCC(=O)N[C@@H]([C@@H](C)O)C(=O)N(C)[C@@H](C)C(=O)N[C@@H](COC(C)(C)C)C(=O)N(C)[C@@H](Cc2ccccc2)C(=O)N1C [DP-794] (cyclo(G[β3hA][NMeβAla]T[NMeA]S(tBu)[NMeF][NMeL])) | 3.7 ×10⁻⁶ cm/s | 43 µL/min/mg |  |  |
| CC[C@H](C)[C@@H]1NC(=O)[C@H](CC(C)C)N(C)C(=O)CN(C)C(=O)[C@H]([C@@H](C)O)NC(=O)[C@H](C)N(C)C(=O)C[C@@H](C(=O)N[C@@H](C)C(=O)N2CCC[C@H]2C(=O)N[C@@H](C)C(=O)N2CCCCC2)NC(=O)[C@H](CC(C)C)N(C)C(=O)[C@H](Cc2ccccc2)N(C)C(=O)[C@H](CC(C)C)N(C)C1=O [DP-662] ([NMeA]T[Sar][NMeL]I[NMeL][NMeF][NMeL]DAPA-Piperidide; lactam N-9) | 18 ×10⁻⁶ cm/s | 101 µL/min/mg |  |  |
| CC(C)C[C@H]1C(=O)N[C@@H](COC(C)(C)C)C(=O)N(C)[C@@H](CC(C)C)C(=O)N[C@H](C(=O)N2CCCCC2)Cc2cccc(c2)CCCCC(=O)N(C)[C@@H](C)C(=O)N(C)[C@@H](Cc2ccccc2)C(=O)N(C)[C@@H](CC(C)C)C(=O)N[C@@H]([C@@H](C)O)C(=O)N(C)CC(=O)N1C [DP-838] ([NMeA][NMeF][NMeL]T[Sar][NMeL]S(tBu)[NMeL][Phe(3-(CH2)4CO)]-Piperidide; lactam N-9) | 54 ×10⁻⁶ cm/s | 224 µL/min/mg |  |  |
| CC[C@H](C)[C@@H]1NC(=O)[C@H](CC(C)C)N(C)C(=O)[C@H](C)NC(=O)CCCN(C)C(=O)C[C@H](C)NC(=O)[C@H]([C@@H](C)O)NC(=O)[C@H](Cc2ccccc2)NC(=O)[C@H](C(C)C)N(C)C(=O)[C@H](C)N(C)C(=O)[C@H](Cc2ccccc2)N(C)C1=O [DP-778] (cyclo(A[NMeL]I[NMeF][NMeA][NMeV]FT[β3hA][NMeGABA])) |  |  | 26 ×10⁻⁶ cm/s | 139 µL/min/mg |
| CC[C@H](C)[C@@H]1NC(=O)[C@H](C)N(C)C(=O)C[C@@H](C(=O)N(C)[C@@H](Cc2ccccc2)C(=O)N[C@@H](C)C(=O)N2CCCCC2)NC(=O)[C@H](CC(C)C)N(C)C(=O)[C@H](CC(C)C)NC(=O)[C@@H]2CCCN2C(=O)CNC(=O)[C@H](CC(C)C)N(C)C(=O)[C@H](Cc2ccccc2)N(C)C(=O)[C@H](Cc2ccccc2)NC(=O)[C@H]([C@@H](C)O)NC1=O [DP-280] ([NMeA]ITF[NMeF][NMeL]GPL[NMeL]D[NMeF]A-Piperidide; lactam N-11) |  |  | 21 ×10⁻⁶ cm/s | 28 µL/min/mg |
| CC(C)[C@@H]1NC(=O)[C@H](C)N(C)C(=O)[C@@H](C)N(C)C(=O)C[C@@H](C(=O)N(C)[C@@H](Cc2ccccc2)C(=O)N(C)[C@@H](Cc2ccccc2)C(=O)N[C@@H](C)C(=O)N2CCCCC2)NC(=O)[C@H](C)N(C)C(=O)[C@H](C)N(C)C(=O)[C@H]([C@@H](C)O)NC(=O)[C@H](C)N(C)C(=O)[C@H](Cc2ccccc2)N(C)C(=O)[C@H](C)N(C)C1=O [DP-509] ([dNMeA][NMeA]V[NMeA][NMeF][NMeA]T[NMeA][NMeA]D[NMeF][NMeF]A-Piperidide; lactam N-10) | 5.1 ×10⁻⁶ cm/s | 30 µL/min/mg |  |  |
| CC(C)C[C@H]1C(=O)NCC(=O)N[C@H](C(=O)N(C)[C@@H](Cc2ccccc2)C(=O)N[C@@H](C)C(=O)N2CCCCC2)CC(=O)N[C@H](C)C(=O)N[C@@H]([C@@H](C)O)C(=O)N(C)[C@@H](C)C(=O)N(C)[C@@H](Cc2ccccc2)C(=O)N[C@@H](C(C)C)C(=O)N(C)[C@@H](Cc2ccccc2)C(=O)N1C [DP-307] ([dA]T[NMeA][NMeF]V[NMeF][NMeL]GD[NMeF]A-Piperidide; lactam N-9) |  |  | 22 ×10⁻⁶ cm/s | 125 µL/min/mg |
| CC(C)C[C@@H]1NC(=O)[C@H](CC(C)C)N(C)C(=O)[C@H](C)NC(=O)[C@H](C(C)C)N(C)C(=O)[C@H](Cc2ccccc2)NC(=O)CN(C)C(=O)[C@H]([C@@H](C)O)NC(=O)[C@H](C)N(C)C(=O)[C@H](CC(C)C)N(C)C(=O)[C@@H](C)NC(=O)C[C@H](C)NC1=O [DP-764] (cyclo(A[NMeL]L[β3hA][dA][NMeL][NMeA]T[Sar]F[NMeV])) | 5 ×10⁻⁶ cm/s | 27 µL/min/mg |  |  |
| CC(C)C[C@H]1C(=O)N(C)[C@@H](C)C(=O)N[C@@H]([C@@H](C)O)C(=O)N(C)[C@@H](C)C(=O)N(C)[C@@H](Cc2ccccc2)C(=O)N(C)[C@@H](C)C(=O)N[C@@H](C)C(=O)N(C)[C@@H](C)C(=O)N(C)[C@@H](C)C(=O)N[C@H](C(=O)N(C)[C@@H](Cc2ccccc2)C(=O)N[C@@H](C)C(=O)N2CCCCC2)CC(=O)N(C)[C@H](C)C(=O)N1C [DP-444] ([dNMeA][NMeL][NMeA]T[NMeA][NMeF][NMeA]A[NMeA][NMeA]D[NMeF]A-Piperidide; lactam N-11) | 0.72 ×10⁻⁶ cm/s | 3 µL/min/mg |  |  |
| CC(C)C[C@H]1C(=O)N[C@@H](COC(C)(C)C)C(=O)N[C@H](C(=O)N2CCCCC2)CC(=O)N[C@H](C)C(=O)N(C)[C@@H](Cc2ccccc2)C(=O)N(C)[C@@H](CC(C)C)C(=O)N[C@@H]([C@@H](C)O)C(=O)N(C)CC(=O)N1C [DP-528] ([dA][NMeF][NMeL]T[Sar][NMeL]S(tBu)D-Piperidide; lactam N-8) | 13 ×10⁻⁶ cm/s | 55 µL/min/mg |  |  |
| CC[C@H](C)[C@H]1C(=O)N(C)[C@@H](Cc2ccccc2)C(=O)N[C@@H](CC(C)C)C(=O)N[C@H](C(=O)N2CCCCC2)CC(=O)N(C)CCC(=O)N(C)[C@@H](CC(C)C)C(=O)N[C@@H]([C@@H](C)O)C(=O)N(C)[C@@H](Cc2ccccc2)C(=O)N(C)[C@@H](CC(C)C)C(=O)N[C@@H](C)C(=O)N(C)[C@@H](CC(C)C)C(=O)N1C [DP-104] ([NMeβAla][NMeL]T[NMeF][NMeL]A[NMeL][NMeI][NMeF]LD-Piperidide; lactam N-11) |  |  | 6.7 ×10⁻⁶ cm/s | 29 µL/min/mg |
| CC(C)C[C@H]1C(=O)N[C@@H](COC(C)(C)C)C(=O)N[C@H](C(=O)N2CCCCC2)CC(=O)N[C@H](C)C(=O)N(C)[C@@H](Cc2ccccc2)C(=O)N(C)[C@@H](CC(C)C)C(=O)N[C@@H]([C@@H](C)O)C(=O)N(C)[C@@H](C)C(=O)N1C [DP-529] ([dA][NMeF][NMeL]T[NMeA][NMeL]S(tBu)D-Piperidide; lactam N-8) | 23 ×10⁻⁶ cm/s | 100 µL/min/mg |  |  |
| C=C1CCC(=O)N(C)[C@@H](Cc2ccccc2)C(=O)N(C)[C@@H](CC(C)C)C(=O)N[C@@H]([C@@H](C)CC)C(=O)N(C)[C@@H](C)C(=O)N(C)[C@@H](Cc2ccccc2)C(=O)N[C@@H]([C@@H](C)O)C(=O)N(C)[C@@H](C)C(=O)N(C)[C@@H](CC(C)C)C(=O)N[C@H](C(=O)N2CCCCC2)Cc2cccc1c2 [DP-834] |  |  | 14 ×10⁻⁶ cm/s | 501 µL/min/mg |
| CC(C)C[C@@H]1NC(=O)[C@H](C)NC(=O)C[C@H](C)NC(=O)[C@H](Cc2ccccc2)N(C)C(=O)[C@H](CC(C)C)N(C)C(=O)[C@H](C)NC(=O)[C@H](Cc2ccccc2)N(C)C(=O)[C@H](CC(C)C)N(C)C1=O [DP-798] (cyclo(AL[NMeL][NMeF]A[NMeL][NMeF][β3hA])) | 69 ×10⁻⁶ cm/s | 1540 µL/min/mg |  |  |
| CC(C)C[C@H]1C(=O)N(C)[C@@H](CC(C)C)C(=O)N(C)[C@@H](CC(C)C)C(=O)N[C@H](C(=O)N2CCCCC2)CC(=O)N(C)CCC(=O)N(C)[C@@H](Cc2ccccc2)C(=O)N(C)[C@@H](CC(C)C)C(=O)N[C@@H]([C@@H](C)O)C(=O)N(C)[C@@H](C)C(=O)NCC(=O)N1C [DP-428] ([NMeβAla][NMeF][NMeL]T[NMeA]G[NMeL][NMeL][NMeL]D-Piperidide; lactam N-10) | 26 ×10⁻⁶ cm/s | 77 µL/min/mg |  |  |
